Measured values: the supplement of paper PMC4862054

Key:
Settings in all cases: incubation time: 72 h
BT-474 = experiment: normalised viability (% of control), CellTiter-Blue; higher = more viable cells (100 = DMSO, 0 = benzethonium chloride kill control)
Procedure: (§1)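 DSRT, CellTiter-Blue viability, 72 h incubation. Signal is normalised to DMSO and benzethonium chloride controls. Value is the normalised response at dose 1.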

BT-549 = experiment: as above
Procedure: as §1

CAL-120 = experiment: as above
Procedure: as §1

CAL-148 [1] = experiment: as above
Procedure: as §1

CAL-51 [2] = experiment: as above
Procedure: as §1

CAL-85-1 [3] = experiment: as above
Procedure: as §1

DU-4475 [4] = experiment: as above
Procedure: as §1

HCC1143 = experiment: as above
Procedure: as §1

HCC1599 [5] = experiment: as above
Procedure: as §1

HCC1937 = experiment: as above
Procedure: as §1

HDQ-P1 [6] = experiment: as above
Procedure: as §1

Hs578T = experiment: as above
Procedure: as §1

MDA-MB-231 [7] = experiment: as above
Procedure: as §1

MDA-MB-436 [8] = experiment: as above
Procedure: as §1

MDA-MB-453 [9] = experiment: as above
Procedure: as §1

MDA-MB-468 = experiment: as above
Procedure: as §1

MFM-223 [10] = experiment: as above
Procedure: as §1

SK-BR-3 = experiment: as above
Procedure: as §1

CAL-148 [11] = experiment: drug sensitivity score (DSS), CellTox Green (DSS (AUC-based score)); higher = stronger drug effect (viability inhibition or cytotoxicity); extreme values may be limits of the assay
How it was run: (§2)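 In 384-well plates, compound was laid out at 5 concentrations in 10-fold steps over a 10,000-fold range specific to each compound, and breast cancer cell lines were seeded on top in 20 µl suspension for a 72 h incubation. CellTox Green fluorescence and then CellTiter-Glo luminescence were read, and each plate was normalised to 0.1 % DMSO and a positive kill control. The drug sensitivity score was calculated from the area under the fitted dose-response curve.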

CAL-51 [12] = experiment: as above
How it was run: as §2

CAL-85-1 [13] = experiment: as above
How it was run: as §2

DU-4475 [14] = experiment: as above
How it was run: as §2

HCC1599 [15] = experiment: as above
How it was run: as §2

HDQ-P1 [16] = experiment: as above
How it was run: as §2

MDA-MB-231 [17] = experiment: as above
How it was run: as §2

MDA-MB-436 [18] = experiment: as above
How it was run: as §2

MDA-MB-453 [19] = experiment: as above
How it was run: as §2

MFM-223 [20] = experiment: as above
How it was run: as §2

SMILES | normalised viability (BT-474; 1 nM) | normalised viability (BT-549; 1 nM) | normalised viability (CAL-120; 1 nM) | normalised viability (CAL-148 [1]; 1 nM) | normalised viability (CAL-51 [2]; 1 nM) | normalised viability (CAL-85-1 [3]; 1 nM) | normalised viability (HCC1937; 1 nM) | normalised viability (MDA-MB-231 [7]; 1 nM) | normalised viability (MDA-MB-468; 1 nM) | normalised viability (SK-BR-3; 1 nM) | drug sensitivity score (CAL-148 [11]) | drug sensitivity score (CAL-51 [12]) | drug sensitivity score (CAL-85-1 [13]) | drug sensitivity score (DU-4475 [14]) | drug sensitivity score (HCC1599 [15]) | drug sensitivity score (HDQ-P1 [16]) | drug sensitivity score (MDA-MB-231 [17]) | drug sensitivity score (MDA-MB-436 [18]) | drug sensitivity score (MDA-MB-453 [19]) | drug sensitivity score (MFM-223 [20]) | also measured
COc1ccc(-c2cc3c(C)nc(N)nc3n([C@H]3CC[C@H](OCCO)CC3)c2=O)cn1 | 100% | 96.5% | 120% | 104% | 95.4% | 105% | 90.5% | 118% | 104% | 86.5% | 12.3 | 12.5 | 4.01 | 0 | 0 | 6.58 | 14.1 | 0 | 0 | 0 | normalised viability (DU-4475 [4]; 1 nM): 106%; normalised viability (HCC1143; 1 nM): 106%; normalised viability (HCC1599 [5]; 1 nM): 130%; normalised viability (HDQ-P1 [6]; 1 nM): 75.8%; normalised viability (Hs578T; 1 nM): 100%; normalised viability (MDA-MB-436 [8]; 1 nM): 103%; normalised viability (MDA-MB-453 [9]; 1 nM): 87.1%; normalised viability (MFM-223 [10]; 1 nM): 102%
O=C(Nc1c[nH]nc1-c1nc2ccc(CN3CCOCC3)cc2[nH]1)NC1CC1 [AT9283] | 96.6% | 98.5% | 87.1% | 91.3% | 107% | 88.9% | 95.6% | 91.6% | 114% | 104% | 0 | 14 | – | 0 | 0 | 0 | 14.3 | 0 | 0 | 0 | normalised viability (DU-4475 [4]; 1 nM): 95.5%; normalised viability (HCC1143; 1 nM): 87.1%; normalised viability (HCC1599 [5]; 1 nM): 101%; normalised viability (HDQ-P1 [6]; 1 nM): 103%; normalised viability (Hs578T; 1 nM): 117%; normalised viability (MDA-MB-436 [8]; 1 nM): 98.8%; normalised viability (MDA-MB-453 [9]; 1 nM): 100%; normalised viability (MFM-223 [10]; 1 nM): 102%
COc1cc(CCc2cc(NC(=O)c3ccc(N4CC(C)NC(C)C4)cc3)n[nH]2)cc(OC)c1 (stereo not given) [AZD4547] | – | – | – | – | – | – | – | – | – | – | 0.783 | 0 | 0 | 0 | 0 | 2.76 | 0 | 0 | 0 | 0 | normalised viability (BT-474; 0.1 nM): 112%; normalised viability (BT-549; 0.1 nM): 111%; normalised viability (CAL-120; 0.1 nM): 93.6%; normalised viability (CAL-148 [1]; 0.1 nM): 113%; normalised viability (CAL-51 [2]; 0.1 nM): 117%; normalised viability (CAL-85-1 [3]; 0.1 nM): 89.7%; normalised viability (DU-4475 [4]; 0.1 nM): 95.7%; normalised viability (HCC1143; 0.1 nM): 96%; normalised viability (HCC1599 [5]; 0.1 nM): 115%; normalised viability (HCC1937; 0.1 nM): 105%; normalised viability (HDQ-P1 [6]; 0.1 nM): 139%; normalised viability (Hs578T; 0.1 nM): 108%; normalised viability (MDA-MB-231 [7]; 0.1 nM): 100%; normalised viability (MDA-MB-436 [8]; 0.1 nM): 94.4%; normalised viability (MDA-MB-453 [9]; 0.1 nM): 105%; normalised viability (MDA-MB-468; 0.1 nM): 125%; normalised viability (MFM-223 [10]; 0.1 nM): 91.8%; normalised viability (SK-BR-3; 0.1 nM): 102%
CCC/C=C/C=C/C(=O)O[C@H]1/C(=C/C(=O)OC)C[C@H]2C[C@H]([C@@H](C)O)OC(=O)C[C@H](O)C[C@@H]3C[C@H](OC(C)=O)C(C)(C)[C@](O)(C[C@@H]4C/C(=C/C(=O)OC)C[C@H](/C=C/C(C)(C)[C@]1(O)O2)O4)O3 [Bryostatin 1] | 105% | – | – | – | – | – | 85.2% | 98.7% | 99.1% | 103% | 0 | 0 | 0 | 0 | 0 | 10.8 | 0 | – | 0 | 0 | normalised viability (BT-549; 0.01 nM): 109%; normalised viability (CAL-120; 0.01 nM): 85.8%; normalised viability (CAL-148 [1]; 0.01 nM): 98.8%; normalised viability (CAL-51 [2]; 0.01 nM): 99.2%; normalised viability (CAL-85-1 [3]; 0.01 nM): 97.5%; normalised viability (DU-4475 [4]; 0.01 nM): 118%; normalised viability (HCC1143; 0.01 nM): 114%; normalised viability (HCC1599 [5]; 0.01 nM): 123%; normalised viability (HDQ-P1 [6]; 0.01 nM): 100%; normalised viability (Hs578T; 0.01 nM): 106%; normalised viability (MDA-MB-436 [8]; 0.01 nM): 140%; normalised viability (MDA-MB-453 [9]; 0.01 nM): 102%; normalised viability (MFM-223 [10]; 0.01 nM): 96.2%
CO[C@@H](C(=O)N1Cc2[nH]nc(NC(=O)c3ccc(N4CCN(C)CC4)cc3)c2C1)c1ccccc1 [Danusertib] | 101% | 109% | 81% | 101% | 116% | 77.2% | 91.3% | 101% | 98.7% | 79.4% | 0 | 13.8 | 0 | 0 | 0 | 0.964 | 0 | 3.88 | 0 | 0 | normalised viability (DU-4475 [4]; 1 nM): 107%; normalised viability (HCC1143; 1 nM): 99.3%; normalised viability (HCC1599 [5]; 1 nM): 94.1%; normalised viability (HDQ-P1 [6]; 1 nM): 110%; normalised viability (Hs578T; 1 nM): 96.6%; normalised viability (MDA-MB-436 [8]; 1 nM): 96.5%; normalised viability (MDA-MB-453 [9]; 1 nM): 84.3%; normalised viability (MFM-223 [10]; 1 nM): 53.6%
O=S(=O)(c1cccc2cnccc12)N1CCCNCC1 [Fasudil] | 102% | 98.8% | 83.9% | 90.8% | 111% | 96% | 88.6% | 106% | 102% | 93.8% | 0 | 0 | 0 | 0 | 0 | – | 2.62 | 0 | 0 | 0 | normalised viability (DU-4475 [4]; 1 nM): 108%; normalised viability (HCC1143; 1 nM): 92.8%; normalised viability (HCC1599 [5]; 1 nM): 99.4%; normalised viability (HDQ-P1 [6]; 1 nM): 99.9%; normalised viability (Hs578T; 1 nM): 116%; normalised viability (MDA-MB-436 [8]; 1 nM): 109%; normalised viability (MDA-MB-453 [9]; 1 nM): 121%; normalised viability (MFM-223 [10]; 1 nM): 105%
